How the values were obtained:
Type in all cases: functional, cell-based
[1] = target: T1, Bile salt export pump (Homo sapiens, UniProt O95342); experiment: TP_TRANSPORTER: inhibitory effect of typical BSEP inhibitors (Verapamil & Cyclosporin A) in SK-E2 cells (expressing BSEP)
[2] = target: T1, Bile salt export pump; experiment: TP_TRANSPORTER: increase in dihydrofluorescein intracellular accumulation (dihydrofluorescein: 1 uM) in SK-E2 cells (expressing BSEP); details: for Activity: sk-e2
[3] = target: T1, Bile salt export pump; experiment: TP_TRANSPORTER: increase in bodipy intracellular accumulation (Bodipy: 0.2 uM) in SK-E2 cells (expressing BSEP); details: for Activity: human, sk-e2

T1 sequence (O95342 whole entry): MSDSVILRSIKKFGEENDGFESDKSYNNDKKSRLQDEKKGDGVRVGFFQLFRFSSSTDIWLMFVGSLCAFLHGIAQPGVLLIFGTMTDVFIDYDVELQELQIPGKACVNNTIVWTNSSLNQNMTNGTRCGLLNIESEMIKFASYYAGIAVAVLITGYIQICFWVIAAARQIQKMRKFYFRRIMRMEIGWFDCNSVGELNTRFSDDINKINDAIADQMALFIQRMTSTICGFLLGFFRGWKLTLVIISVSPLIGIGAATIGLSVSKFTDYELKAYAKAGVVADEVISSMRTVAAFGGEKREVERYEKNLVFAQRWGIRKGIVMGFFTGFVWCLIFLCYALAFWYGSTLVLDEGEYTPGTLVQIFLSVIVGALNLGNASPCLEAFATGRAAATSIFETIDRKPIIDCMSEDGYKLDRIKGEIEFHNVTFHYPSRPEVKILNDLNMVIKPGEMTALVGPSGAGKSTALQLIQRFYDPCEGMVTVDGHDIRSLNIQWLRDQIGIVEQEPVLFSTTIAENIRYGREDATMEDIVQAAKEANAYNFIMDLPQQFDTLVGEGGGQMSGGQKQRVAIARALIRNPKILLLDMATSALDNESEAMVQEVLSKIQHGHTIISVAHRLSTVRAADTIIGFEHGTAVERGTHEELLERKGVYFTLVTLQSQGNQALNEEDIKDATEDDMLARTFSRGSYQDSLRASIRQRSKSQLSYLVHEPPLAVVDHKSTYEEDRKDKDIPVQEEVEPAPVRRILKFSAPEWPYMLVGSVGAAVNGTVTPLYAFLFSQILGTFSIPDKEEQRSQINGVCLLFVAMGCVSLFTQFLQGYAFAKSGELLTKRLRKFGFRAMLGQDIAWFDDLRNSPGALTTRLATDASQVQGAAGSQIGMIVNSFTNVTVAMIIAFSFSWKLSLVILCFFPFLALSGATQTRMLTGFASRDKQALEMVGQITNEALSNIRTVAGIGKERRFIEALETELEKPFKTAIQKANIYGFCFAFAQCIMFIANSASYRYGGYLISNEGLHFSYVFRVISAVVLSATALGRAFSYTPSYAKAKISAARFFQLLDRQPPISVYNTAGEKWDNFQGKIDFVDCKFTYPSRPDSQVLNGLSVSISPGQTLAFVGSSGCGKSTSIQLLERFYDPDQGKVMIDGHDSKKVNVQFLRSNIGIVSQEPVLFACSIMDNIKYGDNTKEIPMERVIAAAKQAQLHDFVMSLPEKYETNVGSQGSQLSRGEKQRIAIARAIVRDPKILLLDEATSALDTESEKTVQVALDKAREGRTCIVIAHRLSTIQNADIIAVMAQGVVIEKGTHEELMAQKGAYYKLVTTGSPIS

## CC(=O)OCOC(=O)CN(CC(=O)OCOC(C)=O)Cc1c(OC(C)=O)ccc2c1Oc1c(ccc(OC(C)=O)c1CN(CC(=O)OCOC(C)=O)CC(=O)OCOC(C)=O)C21OC(=O)c2ccccc21
[1]
  Activity: is not a substrate [-]

## O=C(O[C@@H]1Cc2c(O)cc(O)cc2O[C@@H]1c1cc(O)c(O)c(O)c1)c1cc(O)c(O)c(O)c1 [EPIGALOCATECHIN GALLATE]
[2]
  Activity: is not an inhibitor [-]
[3]
  IC50: 214 µM

## Cc1c(C)c2c(c(C)c1O)CCC(C)(COc1ccc(CC3SC(=O)NC3=O)cc1)O2 (centres undefined) [TROGLITAZONE]
[2]
  IC50: 66.4 µM

## COC(=O)[C@H]1[C@H]2C[C@@H]3c4[nH]c5cc(OC)ccc5c4CCN3C[C@H]2C[C@@H](OC(=O)c2cc(OC)c(OC)c(OC)c2)[C@@H]1OC [RESERPINE]
[2]
  IC50: 10.2 µM
[3]
  Activity: is not an inhibitor [-]

## CC(=O)Oc1cc2c(cc1Cl)C(c1c(C(=O)O)cccc1C(=O)O)c1cc(Cl)c(OC(C)=O)cc1O2.CC(=O)Oc1cc2c(cc1Cl)C(c1cc(C(=O)O)ccc1C(=O)O)c1cc(Cl)c(OC(C)=O)cc1O2
[1]
  Activity: is not a substrate [-]

## O=C(CI)Nc1ccc(-c2c3ccc(=O)cc-3oc3cc(O)ccc23)c(C(=O)O)c1 [5-Iodoacetamidofluorescein]
[1]
  Activity: is not a substrate [-]

## O=C1OC2(c3ccc(O)cc3Oc3cc(O)ccc32)c2ccccc21 [FLUORESCEIN]
[1]
  Activity: substrate [+]

## C=C[C@H]1C[N@@]2CC[C@H]1C[C@@H]2[C@@H](O)c1ccnc2ccc(OC)cc12 [QUINIDINE]
[2]
  Activity: is not an inhibitor [-]

## Cc1cc(C)n2c1C=C1C=CC(CCCCCCCCCCCC(=O)OC3CC[C@@]4(C)C(=CC[C@@H]5[C@@H]4CC[C@]4(C)C(C(C)CCCC(C)C)CC[C@@H]54)C3)=[N+]1[B-]2(F)F (some centres undefined) [CHOLESTERYL BODIPY FL C12]
[1]
  Activity: is not a substrate [-]

## O=C(O)c1ccccc1C1c2ccc(O)cc2Oc2cc(O)ccc21 [FLUORESCIN]
[1]
  Activity: substrate [+]

## CO[C@H]1/C=C/O[C@@]2(C)Oc3c(C)c(O)c4c(O)c(cc(O)c4c3C2=O)NC(=O)/C(C)=C\C=C\[C@H](C)[C@H](O)[C@@H](C)[C@@H](O)[C@@H](C)[C@H](OC(C)=O)[C@@H]1C [RIFAMYCIN]
[2]
  IC50: 12.2 µM
[3]
  IC50: 206 µM

## CN/C(=N/CCSCc1nc[nH]c1C)NC#N [CIMETIDINE]
[2]
  Activity: is not an inhibitor [-]
[3]
  Activity: is not an inhibitor [-]

## CC[n+]1cc(N(C)C)cc2ccc(/C=C/C=C/c3ccc(N(C)C)cc3)cc21
[1]
  Activity: is not a substrate [-]

## CC(=O)OCOC(=O)CN(CC(=O)OCOC(C)=O)c1ccc(C)cc1OCCOc1cc(-c2c3cc(Cl)c(=O)cc-3oc3cc(OCOC(C)=O)c(Cl)cc23)ccc1N(CC(=O)OCOC(C)=O)CC(=O)OCOC(C)=O
[1]
  Activity: is not a substrate [-]

## CCOc1ccc(-c2nc3cc(-c4nc5cc(N6CCN(C)CC6)ccc5[nH]4)ccc3[nH]2)cc1
[1]
  Activity: is not a substrate [-]

## CN(CCOC(=O)CI)c1ccc([N+](=O)[O-])c2nonc12
[1]
  Activity: is not a substrate [-]

## CC(C)[C@@H]1NC(=O)[C@H](C)OC(=O)[C@@H](C(C)C)NC(=O)[C@@H](C(C)C)OC(=O)[C@H](C(C)C)NC(=O)[C@H](C)OC(=O)[C@@H](C(C)C)NC(=O)[C@@H](C(C)C)OC(=O)[C@H](C(C)C)NC(=O)[C@H](C)OC(=O)[C@@H](C(C)C)NC(=O)[C@@H](C(C)C)OC1=O [VALINOMYCIN]
[2]
  IC50: 7.2 µM
[3]
  Activity: is not an inhibitor [-]

## CC[C@]1(O)C[C@@H]2CN(CCc3c([nH]c4ccccc34)[C@@](C(=O)OC)(c3cc4c(cc3OC)N(C)[C@H]3[C@@](O)(C(=O)OC)[C@H](OC(C)=O)[C@]5(CC)C=CCN6CC[C@]43[C@@H]65)C2)C1 [VINBLASTINE]
[2]
  IC50: 62 µM
[3]
  IC50: 115 µM

## CN(C)CCCN1c2ccccc2Sc2ccc(Cl)cc21 [CHLORPROMAZINE]
[2]
  IC50: 33.5 µM
[3]
  IC50: 30.9 µM

## CCN1C(=C/C=C/c2n(CC)c3cc(Cl)c(Cl)cc3[n+]2CC)N(CC)c2cc(Cl)c(Cl)cc21.[I-]
[1]
  Activity: is not a substrate [-]

## CN(C)c1ccc2c(-c3ccc(CCl)cc3)c3ccc(=[N+](C)C)cc-3oc2c1.[Br-] [TETRAMETHYLROSAMINE]
[1]
  Activity: is not a substrate [-]

## CC(C)/N=c1\cc2n(-c3ccc(Cl)cc3)c3ccccc3nc-2cc1Nc1ccc(Cl)cc1 [CLOFAZIMINE]
[2]
  IC50: 28.7 µM

## COc1cccc2c1C(=O)c1c(O)c3c(c(O)c1C2=O)C[C@@](O)(C(=O)CO)C[C@@H]3O[C@H]1C[C@H](N)[C@H](O)[C@H](C)O1 [DOXORUBICIN]
[1]
  Activity: is not a substrate [-]

## C[C@H](CCC(=O)NCCS(=O)(=O)O)[C@H]1CC[C@H]2[C@@H]3CC[C@@H]4C[C@H](O)CC[C@]4(C)[C@H]3CC[C@]12C [TAUROLITHOCHOLIC ACID]
[2]
  IC50: 189 µM
[3]
  Activity: is not an inhibitor [-]

## COc1cccc2c1C(=O)c1c(O)c3c(c(O)c1C2=O)C[C@@](O)(C(C)=O)C[C@@H]3O[C@H]1C[C@H](N)[C@H](O)[C@H](C)O1 [DAUNORUBICIN]
[1]
  Activity: is not a substrate [-]

## COC(=O)c1ccccc1-c1c2ccc(=N)cc-2oc2cc(N)ccc12.Cl [RHODAMINE123]
[1]
  Activity: is not a substrate [-]
